“And” between values parts separate entries of the source, which are not always exact repeats. Equal values may be shown once. Toxic doses and inconclusive results are not listed. Rule as the data show it: active = T/C of 150% or more; inactive = T/C below 125%.
System: L1210 leukemia ip in BDF1 mice, survival T/C
Test: NCI In Vivo Anticancer Drug Screen. Data for tumor model L1210 Leukemia (intraperitoneal) in B6D2F1 (BDF1) mice
Settings: endpoint: mean survival time, higher = longer survival
Outline: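 Mice bearing the transplanted tumor received compound or vehicle. Survival of the treated group was divided by that of the vehicle-treated control group to give the ratio.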

[1] = dose: 25.0 mg/kg/injection, schedule: Q04DX002 (ip), vehicle: saline with Tween-80
[2] = dose: 50.0 mg/kg/injection, schedule: Q04DX002 (ip), vehicle: saline with Tween-80
[3] = dose: 100.0 mg/kg/injection, schedule: Q04DX002 (ip), vehicle: saline with Tween-80
[4] = dose: 100.0 mg/kg/injection, schedule: Q04DX003 (ip), vehicle: Klucel (hydroxypropylcellulose) (HPC)
[5] = dose: 200.0 mg/kg/injection, schedule: Q04DX003 (ip), vehicle: Klucel (hydroxypropylcellulose) (HPC)
[6] = dose: 400.0 mg/kg/injection, schedule: Q04DX003 (ip), vehicle: Klucel (hydroxypropylcellulose) (HPC)
[7] = dose: 100.0 mg/kg/injection, schedule: Q04DX002 (ip), vehicle: Klucel (hydroxypropylcellulose) (HPC)
[8] = dose: 200.0 mg/kg/injection, schedule: Q04DX002 (ip), vehicle: Klucel (hydroxypropylcellulose) (HPC)
[9] = dose: 12.5 mg/kg/injection, schedule: Q04DX002 (ip), vehicle: saline with Tween-80
[10] = dose: 100.0 mg/kg/injection, schedule: Q01DX001 (ip), vehicle: acetone
[11] = dose: 200.0 mg/kg/injection, schedule: Q01DX001 (ip), vehicle: acetone
[12] = dose: 100.0 mg/kg/injection, schedule: Q01DX001 (ip), vehicle: saline
[13] = dose: 200.0 mg/kg/injection, schedule: Q01DX001 (ip), vehicle: saline
[14] = dose: 400.0 mg/kg/injection, schedule: Q01DX001 (ip), vehicle: saline

Measured: T/C

CCCCCCC[n+]1cccc(C#N)c1
inactive: dose: 37.5 mg/kg/injection, schedule: Q04DX003 (ip), vehicle: saline 96 % of control | dose: 75.0 mg/kg/injection, schedule: Q01DX001 (ip), vehicle: saline 96 % of control | dose: 75.0 mg/kg/injection, schedule: Q04DX003 (ip), vehicle: saline 98 % of control | dose: 150.0 mg/kg/injection, schedule: Q01DX001 (ip), vehicle: saline 100 % of control | dose: 150.0 mg/kg/injection, schedule: Q04DX003 (ip), vehicle: saline 95 % of control

CN1CCN(CCCN2C(c3ccccc3)C2c2ccccc2)CC1 (configuration not stated)
inactive: dose: 50.0 mg/kg/injection, schedule: Q04DX003 (ip), vehicle: saline 101 % of control | dose: 100.0 mg/kg/injection, schedule: Q04DX003 (ip), vehicle: saline 93 % of control | dose: 200.0 mg/kg/injection, schedule: Q04DX003 (ip), vehicle: saline 93 % of control

CC(CO)CCC(=O)C(C)C1C2(CC3C4CCC5CC(O)CCC5(C)C4CCC31C)SCCS2 (configuration not stated)
inactive: [1] 100 % of control | [2] 100 % of control | [3] 96 % of control

COc1cc(C)c(/C=N/NC(=O)c2ccncc2)cc1C
inactive: dose: 100.0 mg/kg/injection, schedule: Q04DX002 (ip), vehicle: carboxymethylcellulose (CMC) 103 % of control | dose: 200.0 mg/kg/injection, schedule: Q04DX002 (ip), vehicle: carboxymethylcellulose (CMC) 96 % of control | dose: 400.0 mg/kg/injection, schedule: Q04DX002 (ip), vehicle: carboxymethylcellulose (CMC) 92 % of control

O=C1c2ccccc2C(=O)N1N(c1ccccc1)c1ccccc1
inactive: dose: 50.0 mg/kg/injection, schedule: Q01DX009 (ip), vehicle: Klucel (hydroxypropylcellulose) (HPC) 108 % of control | [4] 95 % of control | dose: 200.0 mg/kg/injection, schedule: Q01DX009 (ip), vehicle: Klucel (hydroxypropylcellulose) (HPC) 106 % of control | [5] 97 % of control | dose: 400.0 mg/kg/injection, schedule: Q01DX009 (ip), vehicle: Klucel (hydroxypropylcellulose) (HPC) 103 % of control | [6] 109 % of control

NC(N)=NN=C(C1CC1)C1CC1
inactive: dose: 15.0 mg/kg/injection, schedule: Q01DX Z (ip), vehicle: carboxymethylcellulose (CMC) 103 % of control | dose: 30.0 mg/kg/injection, schedule: Q01DX Z (ip), vehicle: carboxymethylcellulose (CMC) 89 % of control | dose: 60.0 mg/kg/injection, schedule: Q01DX Z (ip), vehicle: carboxymethylcellulose (CMC) 95 % of control | dose: 120.0 mg/kg/injection, schedule: Q01DX Z (ip), vehicle: carboxymethylcellulose (CMC) 92 % of control and 96 % of control | dose: 120.0 mg/kg/injection, schedule: Q01DX Z (oral), vehicle: carboxymethylcellulose (CMC) 105 % of control | dose: 240.0 mg/kg/injection, schedule: Q01DX Z (ip), vehicle: carboxymethylcellulose (CMC) 92 % of control and 104 % of control | dose: 240.0 mg/kg/injection, schedule: Q01DX Z (oral), vehicle: carboxymethylcellulose (CMC) 105 % of control | dose: 480.0 mg/kg/injection, schedule: Q01DX Z (ip), vehicle: carboxymethylcellulose (CMC) 104 % of control | dose: 480.0 mg/kg/injection, schedule: Q01DX Z (oral), vehicle: carboxymethylcellulose (CMC) 103 % of control | dose: 960.0 mg/kg/injection, schedule: Q01DX Z (oral), vehicle: carboxymethylcellulose (CMC) 100 % of control

O=[N+]([O-])c1cccc(Cl)c1F
inactive: [7] 101 % of control | [8] 96 % of control

CCCCCCCC/C=C\CCCCCCCCN1CC(C(=O)[O][Pb]([CH2]C)([CH2]C)[CH2]C)CC1=O (configuration not stated)
inactive: dose: 1.5 mg/kg/injection, schedule: Q01DX009 (ip), vehicle: saline with Tween-80 100 % of control | dose: 3.0 mg/kg/injection, schedule: Q01DX009 (ip), vehicle: saline with Tween-80 101 % of control | dose: 6.0 mg/kg/injection, schedule: Q01DX009 (ip), vehicle: saline with Tween-80 100 % of control | dose: 6.25 mg/kg/injection, schedule: Q01DX009 (ip), vehicle: saline with Tween-80 94 % of control | [9] 108 % of control | [1] 105 % of control

COc1ccc(CN2CCCN(Cc3ccc(OC)cc3)C2c2cc(Br)c(OC)c(OC)c2)cc1
inactive: [10] 94 % of control | [11] 94 % of control | dose: 400.0 mg/kg/injection, schedule: Q01DX001 (ip), vehicle: acetone 94 % of control

NCC1OC(n2cnc3c(=O)[nH]c(N)nc32)C(O)C1O (configuration not stated)
inactive: [12] 101 % of control | [13] 95 % of control | [14] 91 % of control

O=C(O)C(Br)CO (configuration not stated) (tested in a mixture with another compound)
inactive: [10] 93 % of control | [11] 95 % of control

Cc1cccc(NC(=O)CSc2ccc(Cl)cc2)c1
inactive: dose: 100.0 mg/kg/injection, schedule: Q04DX002 (sc), vehicle: olive oil, sesame oil, peanut oil 100 % of control | dose: 200.0 mg/kg/injection, schedule: Q04DX002 (sc), vehicle: olive oil, sesame oil, peanut oil 106 % of control | dose: 400.0 mg/kg/injection, schedule: Q04DX002 (sc), vehicle: olive oil, sesame oil, peanut oil 89 % of control

CC1CCOP(=O)(Sc2ccccc2)O1 (configuration not stated)
inactive: dose: 75.0 mg/kg/injection, schedule: Q04DX002 (ip), vehicle: Klucel (hydroxypropylcellulose) (HPC) 102 % of control | [7] 106 % of control | dose: 150.0 mg/kg/injection, schedule: Q04DX002 (ip), vehicle: Klucel (hydroxypropylcellulose) (HPC) 113 % of control | [8] 109 % of control

Nc1ccc(Cc2ccc(N)c(Cl)c2)cc1Cl
inactive: [4] 100 % of control | [5] 91 % of control | [6] 100 % of control

CCCOc1ccc(C)cc1
inactive: [12] 93 % of control | [13] 108 % of control

CC(=O)N1CC(n2cnc3c(N)ncnc32)CC1CO (configuration not stated)
inactive: [9] 102 % of control | [1] 98 % of control | [2] 94 % of control

CSc1nc(N)nc2c1ncn2C1OC(CO)C(O)C1O (configuration not stated)
inactive: dose: 63.0 mg/kg/injection, schedule: Q01DX009 (ip), vehicle: saline 98 % of control | [12] 105 % of control | dose: 108.0 mg/kg/injection, schedule: Q01DX009 (ip), vehicle: saline 98 % of control | dose: 178.0 mg/kg/injection, schedule: Q01DX001 (ip), vehicle: saline 110 % of control | dose: 180.0 mg/kg/injection, schedule: Q01DX009 (ip), vehicle: saline 118 % of control | [13] 112 % of control | dose: 267.0 mg/kg/injection, schedule: Q01DX001 (ip), vehicle: saline 121 % of control

CCCNC(=O)Oc1c(C(C)C)ccc(C)c1Cl
inactive: dose: 100.0 mg/kg/injection, schedule: Q01DX009 (ip), vehicle: saline with Tween-80 108 % of control | dose: 200.0 mg/kg/injection, schedule: Q01DX009 (ip), vehicle: saline with Tween-80 88 % of control | dose: 400.0 mg/kg/injection, schedule: Q01DX009 (ip), vehicle: saline with Tween-80 95 % of control

CCOCC(=O)Oc1ccc(/C=N/NC(N)=S)nc1
inactive: [3] 116 % of control | dose: 200.0 mg/kg/injection, schedule: Q04DX002 (ip), vehicle: saline with Tween-80 113 % of control | dose: 400.0 mg/kg/injection, schedule: Q04DX002 (ip), vehicle: saline with Tween-80 116 % of control

O=C(Nc1ccc(Cl)c(Cl)c1)n1ncc2ccc([N+](=O)[O-])cc21
inactive: [12] 100 % of control | [13] 96 % of control | [14] 100 % of control
